# Patent US9458146B2, “Crystalline sodium salt of an HIV integrase inhibitor” (SANDOZ AG, priority 2011, dated 2016)
# Tests used:
# [1] = Storage of form A at elevated temperature; format: physicochemical
# [2] = Solubility and stability of form A in water; format: physicochemical; conditions: 22±2° C.
# Description: 104 mg of raltegravir sodium salt form A is suspended in 1.0 ml water and the suspension placed on a laboratory shaker at 22±2° C. for 24 hours at a rate of 400 rpm. After 24 hours shaking the suspension is filtered, the obtained solid investigated by powder X-ray diffraction, and the concentration in the liquid phase is determined by UV-vis spectroscopy.
smiles,measurement,setting,value
"Cc1nnc(C(=O)NC(C)(C)c2nc(C(=O)NCc3ccc(F)cc3)c(O)c(=O)n2C)o1 [form A, N-(4-fluorobenzyl)-5-hydroxy-1-methyl-2-(1-methyl-1-{[(5-methyl-1,3,4-oxadiazol-2-yl)carbonyl]amino}ethyl)-6-oxo-1,6-dihydropyrimidine-4-carboxamide]",thermal stability on storage,[1],without decomposition
same,solubility,"[2]; 22 °C, thermodynamic from solid, suspended in water, 24 hours shaking, resulting pH 10.4, UV-vis, read-out: aqueous solubility (concentration in the liquid phase)",47 ± 5 mg/mL
same,crystalline form of the solid after suspension in water (XRPD),"[2]; suspension in water, 24 hours",form A is retained
same,pH of the liquid phase,"[2]; suspension in water, 24 hours",10.4
same,crystalline form of the solid after suspension in water (XRPD),"[2]; suspension in water, 24 hours, listed as raltegravir sodium salt form A",crystalline form A is retained
